Data on eleven molecules can be found in patent publication US9896491B2, “Composition for treatment of multiple sclerosis” (LIFEBIO LABORATORIES LLC, priority 2009, dated 2018).

Data set [1] has as its system ESAMBPCAA
The experiment in a line: ESAMBPCAA mediated MBP hydrolysis in serum samples of progressive MS patients in presence of test substances. In kind it is biochemical, human. The conditions noted are these: for suppressive effect on MBP-specific auto antibody mediated hydrolysis: 100 nM, summary of Table 3; for MBP-specific auto antibody mediated hydrolysis: test substance 100 nM. Here is the method: (§1) MBP hydrolysis by anti MBP auto antibodies was assayed as follows: Purified antibodies (0.1-1 μg) were incubated at 37° C. for 14 h in the final volume of 12.5 μl PBS, 0.02% NaN3 containing 1-2 μg of MBP. The samples were mixed with Laemmli's buffer. The extent of MBP degradation was visualized by SDS-PAGE in Tris-glycine and Tricine buffer systems. For quantitative MBP degradation assay, MBP (10 μM) was incubated at 37° C. with antibodies (60 nM) in 0.1 ml of PBS, 0.02% NaN3 for 12 h. The reaction was stopped by adding 10% TFA up to pH 2.5. The samples were further chromatographed on column C4 4.0/150 (Waters). The amount of non-cleaved MBP was calculated by absorbance monitoring at 280 nm.
Serum samples collected from 5 patients suffering from progressive MS were quantified for ESAMBPCAA mediated MBP hydrolysis as specified in Example 1 in presence of following substances: […]

Data set [2] concerns ESAMBPCAA
The data set is described as follows: ESAMBPCAA mediated MBP hydrolysis in serum of treated EAE DA rats. The conditions noted are these: days 8-12; for rates of MBP-specific auto antibody mediated hydrolysis: 120 μg daily intranasal, median for 6 animals; for suppression of MBP-specific auto antibody mediated hydrolysis: intranasal, dose-dependent for SEQ ID NO: 2. In kind it is in vivo.

In data set [3] the test system is Experimental Allergic Encephalomyelitis (EAE) in DA rats. The experiment in a line: MDS score in EAE DA rats. Format: in vivo. The conditions noted are these: intranasal, days 8-12; FIG. 4; dose-dependent for SEQ ID NO: 2.
Data set [4] concerns progressive multiple sclerosis patients. The conditions noted are these: 500 mg intravenously every six months; cited from earlier work.
For data set [5], the system named is ESAMBPCAA
The data set is described as follows: ESAMBPCAA mediated MBP hydrolysis in serum of treated TMEV-infected SJL mice. To be noted: days 14-24. In kind it is in vivo. As to the method:
as §1
(§2) The BeAn strain of TMEV used in this study was generated and propagated in BHK-21 cells grown in Dulbecco's modified Eagle's medium supplemented with 7.5% donor calf serum. For i.c. infection, 30 μl of virus solution (0.2×10^6 to 6×10^6 PFU) was injected into the right cerebral hemisphere of 6- to 8-week-old SJL mice (8 animals per group) anesthetized with isoflurane. Clinical symptoms (MDS score) of disease were assessed weekly on the following grading scale: grade 0, no clinical signs; grade 1, mild waddling gait or flaccid tail; grade 2, severe waddling gait; grade 3, moderate hind limb paresis; and grade 4, severe hind limb paralysis. Serum samples collected from animals were quantified for ESAMBPCAA mediated MBP hydrolysis as specified in Example 1
(§3) At day 14 following infection mice were divided into 6 groups ([…]) and treated during 10 days (days 14-24) according following schedule: […]

Data set [6] deals with Experimental MS (Theiler's Virus Infection) in SJL mice. The data set is described as follows: Experimental MS (Theiler's Virus Infection): disease manifestation and MDS score. Format: in vivo. To be noted: days 14-24; for % Animals affected with disease at day 100: 30 mice per group. Here is the method: as §2, §3
In data set [7] the test system is Experimental Allergic Encephalomyelitis (EAE) in Dark Agouti (DA) Rats. The data set is described as follows: EAE induced by MBP 63-81 in DA rats: clinical signs score. Format: in vivo. To be noted: for therapeutic effect: 150 μg/rat/day SC during 6 days; for Clinical signs score on day 23 after induction (mean): 150 μg/rat/day SC during 6 days from day 9-11 after EAE induction, score 0-5. Here is the method: Female Dark Agouti (DA) Rats, 8-9 weeks of age, about 110-145 g of weight were used as test animals.
For induction of Experimental Allergic Encephalomyelitis (EAE), rats were injected intradermally at the base of the tail with a total volume of 200 μl of inoculum containing 50 μg of MBP 63-81 (ANASPEC), in saline mixed (1:1) with Complete Freund Adjuvant, (IFA, Sigma), and 1 mg killed M. tuberculosis strain (strain H37 RA; Difco Laboratories, Detroit, Mich.). Beginning 24 hours after EAE induction the rats were followed up daily. On day 9 after the after EAE induction more than 50% of the rats developed signs of paralysis. The animals with multiple sclerosis signs were separated into 10 groups for beginning of treatment. Prior to treatment, blood was collected from 2 rats from each group. At day 9 and 11 after EAE induction, 90% of rats developed signs of EAE.
9-11 days after EAE induction the animals were divided into 9 groups (5-6 rats in each). Each group of rats was treated subcutaneously once daily with different claimed oligopeptide or theirs combinations (equimolar mix) (150 μg) or doses of positive control item (Glatiramer acetate, Copaxone, Teva) or negative control item (0.9% Sodium chloride solution), during 6 days as follows:
Copaxone, claimed oligopeptide and combinations thereof (Mechanical mix) were diluted with 0.9% Sodium chloride to a concentration of 450 μg/ml. Volume of 0.33 ml (150 μg/rat/day) was injected SC during 6 days.
After 6 days of the injections cycle the animals were maintained and followed up till day 28th post EAE induction. Clinical signs score was performed daily during study periods. Animals were observed individually during all study periods. In cases of extended observation period clinical signs were recorded once daily. Observations included changes in the fur, eyes, respiratory rate, vocalization, paralysis, activity and behavior pattern. Score of paralysis signs related to MS of each animal was done daily (during all study periods).
Score gradation was as follows: 0—Normal; 1—Tail weakness; 2—Hind leg weakness or paralysis; 3—Hind leg paralysis, dragging hind limbs; 4—Complete paralysis, unable to move; 5—Death.

The subject of another data set is antibodies to MBP. To be noted: in vitro and in vivo (in blood of MS-patients); cited from earlier work.
The test system of data set [8] is relapsing-remitting multiple sclerosis patients. To be noted: Neurology 1995; 45: 1268; cited from earlier work.
In a further data set the test system is CD20+ B lymphocytes. The conditions noted are these: relapsing-remitting multiple sclerosis (RRMS) patients; cited from earlier work.
In data set [9] the test system is relapsing-remitting multiple sclerosis patients. To be noted: Neurology 1993; 43: 662-7; cited from earlier work.
The mark [10] stands for this setting: 20 μg of each oligopeptide daily subcutaneous.

Like-named read-outs stand apart in the source and are kept apart here.

For the molecule APKRGSGKDSH [A4], in the data set with ESAMBPCAA [1], the “suppressive effect on MBP-specific auto antibody mediated hydrolysis” value was “potent suppressive effect”. Further, the “MBP-specific auto antibody mediated hydrolysis” value is reported as 12.1 ± 3.6 pmol/min/nmol in the data set on ESAMBPCAA [1] (Patient 1); 15.6 ± 2.9 pmol/min/nmol in the data set on ESAMBPCAA [1] (Patient 2); 14.3 ± 4.4 pmol/min/nmol in the data set on ESAMBPCAA [1] (Patient 3); 15.8 ± 4.9 pmol/min/nmol in the data set on ESAMBPCAA [1] (Patient 4); 13.3 ± 5.9 pmol/min/nmol in the data set on ESAMBPCAA [1] (Patient 5). In addition, the “rates of MBP-specific auto antibody mediated hydrolysis” value (“rates” for short) with ESAMBPCAA [2] (Day 8 (start of treatment)) was 49.3 ± 4.9 pmol/min/nmol; in the data set on ESAMBPCAA [2] (Day 16), 45.9 ± 7.1 pmol/min/nmol; in the data set on ESAMBPCAA [2] (Day 24), 45.1 ± 6.3 pmol/min/nmol. For the same molecule, the “suppression of MBP-specific auto antibody mediated hydrolysis” value in the data set with ESAMBPCAA [2] is reported as “active in suppression”. The “suppression of MDS score” value in [3] is recorded as “active in suppression”.

Regarding “DENPVVHFFKNIVTPRT [MBP8298, synthetic peptide, amino acid residues 82-98 of MBP]”, the “responders on the treatment” value in [4] was “responders on the treatment with MBP8298 are the patients with HLA heliotypes DR2 and/or DR4 only”.

Regarding GFGYGGRASDYKSAHK [SEQ ID NO: 3], in the data set on ESAMBPCAA [5] (setting [10]), the “ESAMBPCAA activity at day 100” value is 40 ± 3.1 pmol/min/nmol and the “suppression of MBP-specific auto antibody mediated hydrolysis” value was “do not affect”. In [6] (setting [10]), the therapeutic effect result was “moderate therapeutic effect” and the “% Animals affected with disease at day 100” value (from here on “% Animals affected”) was 25(30) %. Further, in data set [7], the therapeutic effect result is “moderate therapeutic effect” and the “Clinical signs score on day 23 after induction (mean)” value (shortened to “Clinical signs score”) was 0.9.

For the molecule “MBP 35-58: non-binding, control peptide, human MBP 35-58 (LSRTTSEDNEVFGEADANQNNGTS; UniProt P02686 35-58, looked up, fragment)”, in the data set with antibodies to MBP, the “effect on free and bound antibodies to MBP” value is reported as “no effect”.

“MBP 75-95: soluble synthetic peptide, residues 75-95 of human MBP (WO 98/45327) (NAWQDAHPADPGSRPHLIRLF; UniProt P02686 75-95, looked up, fragment)”: the “effect on free and bound antibodies to MBP” value in the data set with antibodies to MBP was “showed its ability to bound free antibodies to MBP both in vitro and in vivo”.

Consider QGTLSKIFKLGGRDSRSGSPMARR [SEQ ID NO: 4], for which, in the data set with ESAMBPCAA [5] (setting [10]), the “ESAMBPCAA activity at day 100” value was found to be 35.3 ± 5.1 pmol/min/nmol and the “suppression of MBP-specific auto antibody mediated hydrolysis” value was “do not affect”. Besides, in data set [6] (setting [10]), the therapeutic effect result is on record as “moderate therapeutic effect” and the “% Animals affected” value is recorded as 27(30) %. For the same molecule, in [7], the therapeutic effect result is listed as “moderate therapeutic effect” and the “Clinical signs score” value stood at 0.8.

On to “RGAPKRGSGKRGAPKRGSGKRGAPKRGSGKRGAPKRGSGKRGAPKRGSGKRGAPKRGSGK [A6]”, for which, in the data set with ESAMBPCAA [1], the “suppressive effect on MBP-specific auto antibody mediated hydrolysis” value is “potent suppressive effect”. For the same molecule, the “MBP-specific auto antibody mediated hydrolysis” value in the data set on ESAMBPCAA [1] (Patient 1) turned out to be 7.7 ± 3.3 pmol/min/nmol; in the data set with ESAMBPCAA [1] (Patient 2), 22.3 ± 4.2 pmol/min/nmol; in the data set on ESAMBPCAA [1] (Patient 3), 20.1 ± 3.9 pmol/min/nmol; in the data set with ESAMBPCAA [1] (Patient 4), 21.5 ± 6.6 pmol/min/nmol; in the data set with ESAMBPCAA [1] (Patient 5), 5.0 ± 1.8 pmol/min/nmol. The “rates” value in the data set on ESAMBPCAA [2] (Day 8 (start of treatment)) was found to be 45.7 ± 6.5 pmol/min/nmol; with ESAMBPCAA [2] (Day 16), 48.1 ± 7.4 pmol/min/nmol; with ESAMBPCAA [2] (Day 24) it was 39.4 ± 4.6 pmol/min/nmol. In addition, the “suppression of MBP-specific auto antibody mediated hydrolysis” value in the data set on ESAMBPCAA [2] is on record as “active in suppression”. In addition, the “suppression of MDS score” value in [3] was “active in suppression”.

For SGKDS [A5], the “MBP-specific auto antibody mediated hydrolysis” value with ESAMBPCAA [1] (Patient 1) came out at 57 ± 4.1 pmol/min/nmol; with ESAMBPCAA [1] (Patient 2), 59.7 ± 5.7 pmol/min/nmol; in the data set on ESAMBPCAA [1] (Patient 3), 44.2 ± 6.6 pmol/min/nmol; in the data set with ESAMBPCAA [1] (Patient 4), 45.5 ± 3.8 pmol/min/nmol; in the data set with ESAMBPCAA [1] (Patient 5), 55.7 ± 6.1 pmol/min/nmol.

As for “glatiramer acetate [A2, reference compound]”, the “MBP-specific auto antibody mediated hydrolysis” value with ESAMBPCAA [1] (Patient 1) came to 62.5 ± 1.2 pmol/min/nmol; with ESAMBPCAA [1] (Patient 2), 72.6 ± 7.7 pmol/min/nmol; in the data set on ESAMBPCAA [1] (Patient 3) it was 51.2 ± 3.5 pmol/min/nmol; in the data set with ESAMBPCAA [1] (Patient 4) it was 47.7 ± 7.9 pmol/min/nmol; in the data set with ESAMBPCAA [1] (Patient 5), 65.7 ± 5.4 pmol/min/nmol. The entries for the “rates” value in the data set with ESAMBPCAA [2] (Day 8 (start of treatment)), in the data set on ESAMBPCAA [2] (Day 16) and in the data set on ESAMBPCAA [2] (Day 24) were 51.4 ± 8.2 pmol/min/nmol, 55.4 ± 5.7 pmol/min/nmol and 62.2 ± 5.7 pmol/min/nmol, respectively. Further, the “ESAMBPCAA activity at day 100” value in the data set on ESAMBPCAA [5] (30 μg daily subcutaneous) is given as 39.8 ± 4.1 pmol/min/nmol. Further, in [6] (30 μg daily subcutaneous), the “% Animals affected” value is given as 25(30) %. Moreover, in [7], the “Clinical signs score” value stood at 1.1. The “Adverse Reactions” value in data set [8] is recorded as “Low”. Besides, the “Clinical Observations: Decrease of relapse frequency” value in data set [8] is “frequency—29%;”. Besides, the “Clinical Observations: EDSS score progression” value in data set [8] is given as “Slowing EDSS”. In addition, in data set [8], the “MRI Data: decrease of active lesions” value is on record as “No statistical”.

Consider “rituximab: monoclonal antibody, which selectively targets and depletes CD20+ B lymphocytes”, for which, in the data set with CD20+ B lymphocytes, the “safety and efficacy of therapy” value is “appears safe and effective to some extend”.

B1: Beta-Interferon: Beta-Interferon, existing standard of MS therapy (protein, UniProt P01574 22-187, looked up, variant C17S)
Interferon beta: MSYNLLGFLQRSSNFQSQKLLWQLNGRLEYCLKDRMNFDIPEEIKQLQQFQKEDAALTIYEMLQNIFAIFRQDSSSTGWNETIVENLLANVYHQINHLKTVLEEKLEKEDFTRGKLMSSLHLKRYYGRILHYLKAKEYSHCAWTIVRVEILRNFYFINRLTGYLRN
modifications: interferon beta-1b, lacks N-terminal Met
notes: Beta-Interferon, existing standard of MS therapy
For B1, in [9], the “Adverse Reactions” value is given as “High”, the “Clinical Observations: Decrease of relapse frequency” value is “frequency—83%;”, the “Clinical Observations: EDSS score progression” value was “No slowing EDSS” and the “MRI Data: decrease of active lesions” value is reported as 83% decrease.
